From PMC6874530, “Structural analysis identifies an escape route from the adverse lipogenic effects of liver X receptor ligands” (Communications Biology, 2019) come the findings set out here.

Structures are written as SMILES. pEC50, pKi: −log10 of the molar value. Where “and” joins values, the source holds several entries; their conditions need not be identical. Equal values may be shown once. Read-outs that look alike come from different tables or passages of the source. A value given as a limit tells only on which side of the number the result lay.

One data set deals with T1, LXRβ (Homo sapiens, UniProt P55055).
T1 construct: expression vectors pSG5-Gal4-LXRα LBD or pSG5-Gal4-LXRβ LBD; expressed in transfected cells; host or cells: U2OS osteosarcoma cells
T1 sequence (P55055 222-460 limits assumed): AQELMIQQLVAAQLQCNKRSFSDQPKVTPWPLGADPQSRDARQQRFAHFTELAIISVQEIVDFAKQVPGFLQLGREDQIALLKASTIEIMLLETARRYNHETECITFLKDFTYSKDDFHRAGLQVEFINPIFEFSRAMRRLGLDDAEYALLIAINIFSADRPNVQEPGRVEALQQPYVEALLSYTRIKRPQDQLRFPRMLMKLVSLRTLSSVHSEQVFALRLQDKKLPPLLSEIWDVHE
Nature of the data set: Gal4 one hybrid reporter gene (transactivation) assay in U2OS cells, LXRβ. The class given is cell-based. As to conditions: for EC50: U2OS cells, Gal4-LXRβ LBD, read-out: LXRβ transactivation pEC50 (converted); for Emax: U2OS, 40 h, read-out: LXRβ transactivation Agonist efficacy, %; for Potency-based LXRβ selectivity over LXRα: Gal4 reporter gene assays. How it is done:
Transactivation assays were performed in U2OS osteosarcoma cells (ATCC, USA). […] Ligands were added at ten different concentrations 2 h post transfection and the luciferase activity was measured after 40 h.

Another data set deals with plasma triglycerides. The data set is described as follows: plasma TG induction in C57BL/6 mice vs plasma compound concentration (log-linear model). The class given is in vivo, mouse. The settings on record: for TG induction in plasma Attributed class: mouse, in vivo; for TG induction in plasma m (scaling factor) / TG induction in plasma C2, drug concentration corresponding to a twofold increase in TG levels: (% RSE). As for the experimental part: Male C57BL/6JOlaHsd mice were retrieved from Harlan Laboratories (Horst, The Netherlands) around 7 weeks of age. […] Mice were given ad libitum access to water and standard rodent chow during the studies.
Compounds were given daily by oral gavage, 5 ml kg^−1, at doses ranging from 0.1 to 100 μmol kg^−1 of body weight for 4 days. Animals were terminated 3 h after the last dose.
At termination, the whole-blood volume was drawn from isoflurane-anesthetized mice via an incision in the carotid artery into EDTA blood tubes (S-Monovette®, EDTA KE/1.3 mL, Sarstedt, Nümbrecht, Germany or BD Microtainers®, Benton, Dickinson and Company, Franklin Lakes, New Jersey, USA). Blood samples were placed on ice and centrifuged within an hour (15 min, 2500 × g, 4 °C or 5 min, 16000 × g, 4 °C). The plasma was then dispensed in separate tubes and kept at −80 °C for later analysis of compound concentration and TG levels. For the analysis of intestinal Abca1 transcript levels, a 3–5-mm long segment of the duodenum was excised and cleared from any gut contents. Tissues were instantly snap frozen in liquid nitrogen and stored at −80 °C.
Plasma triglyceride levels were analyzed by using the Triglycerides/Glycerol Blanked reagent kit (Roche Diagnostics GMBH, Mannheim, Germany). Samples were measured on an ABX Pentra 400 instrument (Horiba Medical, Irvine, California, USA) or Cobas Mira plus instrument (Roche Diagnostics Corporation, Indianapolis, USA). […] Absorbance was measured by using a Tecan Infinite M200 plate reader (Tecan Austria GmbH, Salzburg, Austria).
About 25 µL of plasma was precipitated with 150 µL of cold acetonitrile containing 0.2% formic acid. […] Sample analysis was performed by using a reversed-phase high-pressure liquid chromatography system coupled to a Quattro Ultima triple-quadrupole mass spectrometer (Waters, UK). A rapid 2-min 4–90% (vol/vol) acetonitrile (containing 0.2% formic acid) gradient was used for chromatographic separation.
To rank the compounds, the drug concentration (C2) needed to generate a twofold increase in plasma TG was estimated by rearranging Eq. (2):3 C2=exp^2fold−BL−1/m^1/γ

For a further data set, the target named is T2, LXRβ LBD (Homo sapiens, UniProt P55055).
T2 sequence (P55055 215-460 limits assumed): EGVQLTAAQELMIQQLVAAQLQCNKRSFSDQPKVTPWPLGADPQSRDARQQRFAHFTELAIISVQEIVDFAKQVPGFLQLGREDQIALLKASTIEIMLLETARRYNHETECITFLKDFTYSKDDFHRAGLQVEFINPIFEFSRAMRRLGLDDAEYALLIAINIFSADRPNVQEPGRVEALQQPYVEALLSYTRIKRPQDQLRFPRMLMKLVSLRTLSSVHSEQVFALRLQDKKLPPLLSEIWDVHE
Nature of the data set: biochemical.

Where [1] appears, read: maximal activation compared with a reference full agonist, value (SD, n).
Setting [2] is: Receptor-binding affinity pKi LXRβ, value (SD, n independent experiments).
The mark [3] stands for this setting: binding affinity to the LXRβ LBD.

Text for LXRβ LBD: The compounds were run in triplicate (binding assay) or in quadruplicate (transactivation assay). Standard deviations are indicated for individual experiments run more than once.

Consider `CC(C)N1C(=O)C(NC2CCN(c3ncc(CC(=O)O)cc3Cl)CC2)=C(c2ccccc2)S1(=O)=O` [AZ6], for which, at LXRβ (value (SD, n)), the EC50 is 617 nM. The Emax at LXRβ (setting [1]) is 95.3%. Moreover, the “TG induction in plasma Attributed class” value with plasma triglycerides was “Non-lipogenic”. In addition, on LXRβ LBD (setting [2]), the pKi was 6.79.

As to `O=C1C(Cc2ccccc2)=C(NCCCCc2ccccc2)C(=O)N1Cc1ccccc1` [AZ8], at LXRβ (value (SD, n)), the EC50 was 1290 nM. Further, on LXRβ (setting [1]), the Emax is 102%. In addition, the “TG induction in plasma Attributed class” value in the data set with plasma triglycerides was “Non-lipogenic”. The pKi on LXRβ LBD (setting [2]) was 7.32.

`O=S(=O)(c1ccccc1)N(CC(F)(F)F)c1ccc(C(O)(C(F)(F)F)C(F)(F)F)cc1` [T0901317, reference compound]: at LXRβ (setting [1]), the “LXRβ transactivation Agonist efficacy, %” value is given as 95.5 (6.4, n = 2) %. In the data set with plasma triglycerides, the “TG induction in plasma m (scaling factor)” value (from here on “TG induction in plasma m”) is 0.784 (17); the “TG induction in plasma Attributed class” value was “Lipogenic”; the “TG induction in plasma C2, drug concentration corresponding to a twofold increase in TG levels” value was 4.41 (33) μM.

For the compound `CC(C)N1C(=O)C(NCCCCc2cccc(S(N)(=O)=O)n2)=C(c2ccccc2)S1(=O)=O` [AZ3], at LXRβ, the “Potency-based LXRβ selectivity over LXRα” value was found to be 9 fold. Besides, the EC50 on LXRβ (value (SD, n)) is 75.9 nM. At LXRβ (setting [1]), the Emax was determined as 94.3%. Also, the pEC50 at LXRβ (read-out: potency in LXRβ-based assay) is > 7.00. Also, in the data set with plasma triglycerides, the “TG induction in plasma m” value is 0.897 (20). In addition, in the data set on plasma triglycerides, the “TG induction in plasma C2, drug concentration corresponding to a twofold increase in TG levels” value is recorded as 3.42 (38) μM. Further, the pKi was 7.76 on LXRβ LBD (setting [2]) and 8.40 on LXRβ LBD (setting [3]).

As to `CC(CCCc1cccc(S(N)(=O)=O)n1)NC1=C(c2ccccc2)S(=O)(=O)N(C(C)C)C1=O` (stereo not shown) [AZ2], the “Potency-based LXRβ selectivity over LXRα” value on LXRβ stood at 11 fold. The EC50 on LXRβ (value (SD, n)) is 8.71 nM. Besides, on LXRβ (setting [1]), the Emax is 97.3%. For the same compound, in the data set on plasma triglycerides, the “TG induction in plasma m” value is 9.28 (63) and the “TG induction in plasma C2, drug concentration corresponding to a twofold increase in TG levels” value was 0.041 (120) μM. This compound showed a pKi on LXRβ LBD (setting [2]) of 8.43.

As for `CN(C)C(=O)c1cnc(N2CC[C@@H](CNC3=C(c4ccccc4)S(=O)(=O)N(C(C)(C)C)C3=O)C2)c(Cl)c1` [AZ5], on LXRβ, the “Potency-based LXRβ selectivity over LXRα” value came to 11 fold. Besides, the EC50 on LXRβ (value (SD, n)) was 97.7 nM. For the same compound, the Emax at LXRβ (setting [1]) came to 66.5%. This compound also gave a pKi on LXRβ LBD (setting [2]) of 7.11.

As for `CN(C)C(=O)c1cccc(CCCCNC2=C(c3ccccc3)S(=O)(=O)N(C(C)(C)C)C2=O)c1` [AZ1], the EC50 on LXRβ (value (SD, n)) is 30.9 nM. The Emax on LXRβ (setting [1]) is 76%. In the data set with plasma triglycerides, the “TG induction in plasma m” value is 3.88 (30); the “TG induction in plasma Attributed class” value is on record as “Lipogenic”; the “TG induction in plasma C2, drug concentration corresponding to a twofold increase in TG levels” value is 0.214 (58) μM. This compound showed a pKi on LXRβ LBD (setting [2]) of 8.60. In addition, the pKi on LXRβ LBD (setting [3]) is 8.70.

Regarding `CC(C)(C)N1C(=O)C(Cc2ccccc2)=C(NC2CCN(c3ncc(CC(=O)O)cc3Cl)CC2)C1=O` [AZ7], the EC50 on LXRβ (value (SD, n)) was 537 nM. At LXRβ (setting [1]), the Emax turned out to be 104%. Also, the “TG induction in plasma Attributed class” value with plasma triglycerides is “Non-lipogenic”. On LXRβ LBD (setting [2]), this compound had a pKi of 6.98.

In the case of `O=C(O)Cc1cccc(OCCCN(Cc2cccc(C(F)(F)F)c2Cl)CC(c2ccccc2)c2ccccc2)c1` [GW3965, reference compound], at LXRβ (value (SD, n)), the EC50 is 347 nM. At LXRβ, the Emax was found to be 77.1%. In addition, in the data set on plasma triglycerides, the “TG class” value is “non-lipogenic”; the “TG induction in plasma m” value is recorded as 0.244 (18); the “TG induction in plasma Attributed class” value is given as “Non-lipogenic”; the “TG induction in plasma C2, drug concentration corresponding to a twofold increase in TG levels” value is 40.2 μM and 40.2 (33) μM. This compound showed a pKi on LXRβ LBD (setting [2]) of 7.62.

As for `O=C(O)Cc1ccc(CNC(=O)[C@@H]2Cc3ccccc3N2S(=O)(=O)c2ccc(-c3ccccc3C(F)(F)F)cc2)cc1` [F1, reference compound], the EC50 on LXRβ (value (SD, n)) is 3890 nM. The Emax on LXRβ (setting [1]) turned out to be 105%. Besides, in the data set with plasma triglycerides, the “TG induction in plasma m” value is given as 12.1 (38); the “TG induction in plasma Attributed class” value is on record as “Lipogenic”; the “TG induction in plasma C2, drug concentration corresponding to a twofold increase in TG levels” value was 0.025 (72) μM. The compound further showed a pKi at LXRβ LBD (setting [2]) of 7.44.

`CC(C)(O)c1cn(-c2ccc(-c3cc(F)c(CO)c(S(C)(=O)=O)c3)cc2F)c(C(C)(C)c2c(Cl)cccc2Cl)n1` [BMS-852927]: the “agonist activity in the Gal4 reporter gene assay, LXRβ” value on LXRβ is listed as “No signal was observed”. Also, at LXRβ (value (SD, n)), the EC50 is > 20000 nM. Moreover, in the data set with plasma triglycerides, the “TG class” value is given as “non-lipogenic”; the “TG induction in plasma m” value is 0.066 (18); the “TG induction in plasma Attributed class” value is listed as “Non-lipogenic”; the “TG induction in plasma C2, drug concentration corresponding to a twofold increase in TG levels” value was 477 μM and 477 (35) μM. The same compound gave a pKi on LXRβ LBD (setting [2]) of 8.58. Besides, at LXRβ LBD (setting [3]), the pKi was 8.52.

For the compound `CC(C)(C)N1C(=O)C(NC2CCN(c3ncc(CC(=O)O)cc3Cl)CC2)=C(c2ccccc2)S1(=O)=O` [AZ4], at LXRβ (value (SD, n)), the EC50 was 148 nM. For the same compound, the Emax at LXRβ (setting [1]) is 110%. Also, in the data set with plasma triglycerides, the “TG induction in plasma m” value is 1.47 (28) and the “TG induction in plasma C2, drug concentration corresponding to a twofold increase in TG levels” value is on record as 1.35 (54) μM. In addition, at LXRβ LBD (setting [2]), the pKi was 7.48.

On to `Fc1ccc(-c2c3cccc(C(F)(F)F)c3nn2Cc2ccc(F)cc2Cl)cc1` [LXR-623, reference compound], for which, on LXRβ, the pEC50 was 5.73 and the Emax came out at 94.3%. In addition, in the data set on plasma triglycerides, the “TG class” value is listed as “non-lipogenic” and the “TG induction in plasma Attributed class” value is recorded as “Non-lipogenic”. For the same compound, the “trend in plasma TG levels” value with plasma triglycerides (within the explored concentration range) is on record as “no trends toward increased TG levels”. On LXRβ LBD, this compound had a pKi of 7.02.
